The text below walks through data of patent US20180117042A1, “METHODS FOR TREATING RESPIRATORY SYNCYTIAL VIRUS INFECTION” (ALIOS BIOPHARMA, INC., priority 2016, published 2018).

One may read the half-life as the time in which the quantity being followed falls by half. Higher therefore signals slow loss.

Data set [1] in a line: SAD/MAD study in pediatric patients hospitalized with RSV infection: plasma PK with PK modeling. The data set is classed as in vivo, human. On the procedure:
(§1) One hundred fifty eight otherwise healthy pediatric patients hospitalized with RSV infection were recruited in a randomized, double-blind, placebo-controlled, SAD (single ascending dose) and MAD (multiple ascending dose) study. The patients were randomized into nine SAD, MAD regimens. Subjects not given the placebo were administered lumicitabine or compound (A), a prodrug of the nucleoside analog AL-8112 (otherwise referenced herein as compound (C), the triphosphate of which is a potent inhibitor of the RSV polymerase. The cohort size and dose for the first SAD cohort was prespecified. The makeup of all other cohorts was determined by an Independent Data Monitoring Committee (IDMC) that regularly reviewed data. FIG. 2 provides the single and multiple doses used in the study as well as approximate numbers of subjects dosed. Safety and PK data were collected for 7 (SAD) and 28 (MAD) days post randomization. PK was analyzed using non-linear mixed effect modeling.
Part 1 (single ascending dose): Patients received a single dose of 1 of 4 ascending doses of compound (A), (1.37 mg/kg, 4.1 mg/kg, 12 mg/kg and 25 mg/kg) or placebo. Patients received compound (A) for a 7-day consecutive period.
Part 2 (multiple ascending dosage): Patients received a loading dosage followed by nine maintenance dosages, or placebo. Patients received compound (A) for a 5-day consecutive period. The maintenance dosages were administered twice daily. In the twice daily dosage regimen, the first maintenance dosage was given 8-18 hours after the loading dosage (dosage 1).
A PK model was developed integrating adult and pediatric data to aid calculation of PK parameters and project efficacious doses. For pediatric dose and exposure projections three age cohorts were used: 1-<2 months, 2-<6 month and 6-<12 months. Apparent clearance increased with dose, creatinine clearance and body weight (using allometric principles). Maturation functions were applied for age dependent changes in Carboxylesterase 1 abundance on bioavailability and kidney function on renal elimination. […]

Data set [2] is described as follows: SAD/MAD study in pediatric patients hospitalized with RSV infection: safety. Format: in vivo, human. To be noted: infants hospitalized with RSV, interim blinded results. On the procedure:
as §1, with “modeling. Part 1 (single ascending dose): Patients received a single dose of 1 of 4 ascending doses of compound (A), (1.37 mg/kg, 4.1 mg/kg, 12 mg/kg and 25 mg/kg) or placebo. Patients received compound (A) for a 7-day consecutive period. Part 2 (multiple ascending dosage): Patients received a loading dosage followed by nine maintenance dosages, or placebo. Patients received compound (A) for a 5-day consecutive period. […]” for “modeling.”

For data set [3], the system named is RSV-A Memphis 37b challenge virus. Kind of data set: human RSV challenge model in healthy adults, viral load in nasal washes. The data set is classed as in vivo. As for the experimental part: Healthy adults received one of the following dosing regimens or placebo over 5 days using the human RSV challenge model.
Patients were given an intranasal inoculation of RSV-A Memphis 37b challenge virus. Administration of compound (A), or a pharmaceutically acceptable salt thereof, began approximately 12 hours after confirmation of RSV infection as determined by the presence of RSV RNA in nasopharyngeal washes. The test compound was administered as an oral-liquid suspension, wherein the drug vehicle was methyl cellulose and sterile water. The placebo was the drug vehicle without the test compound. Second dosages were started 12 hours after administration of the first dosage, and the remaining second dosages were provided in approximate 12 hour intervals. Nasal washes were collected twice daily approximately 36 to 48 hours after RSV inoculation until Day 12. Viral load was detected and quantified from the aliquots of the nasal wash samples using tissue infectivity plaque assays and PCR. (See DeVincenzo, J. P., et al., Am. J. Respir. Crit. Care. Med. (2010) 182(10):1305-1314) Patients returned for two follow-up visits on Day 16 (±2 days) and Day 28 (±2 days) post-challenge inoculation.

A short description of data set [4]: half-life of the triphosphate compound (B). The conditions noted are these: triphosphate formed inside the cell.
For another data set, the system named is RSV. To be noted: infants and young children with severe RSV LRTI; cited from earlier work.

On to `Nc1ccn([C@@H]2O[C@@](CO)(CCl)[C@@H](O)[C@H]2F)c(=O)n1` [compound (C)], for which, in data set [1] (human, plasma, doses of 40/20 mg/kg and 60/40 mg/kg compound (A), actual concentrations with PK modeling (FIG. 3), read-out: plasma AUC0-24), the AUC(0-t) is 8000 to 20000 ng·h/mL. The accumulation result in data set [1] (multiple dosing) is recorded as “no accumulation”. In addition, the “plasma exposures with increasing ALS-8176 doses (dose proportionality)” value in data set [1] (oral) was “less than dose proportional”.

`CC(C)C(=O)OC[C@@]1(CCl)O[C@@H](n2ccc(N)nc2=O)[C@H](F)[C@@H]1OC(=O)C(C)C` [compound (A), Lumicitabine]: the tolerability result in data set [2] (multiple doses up to 60/40 mg/kg) and in data set [2] (single doses up to 25 mg/kg) was “well tolerated” throughout. Moreover, in data set [3] (all regimens (750/150 mg, 750/500 mg, 375 mg), oral, 5 days, FIG. 1), the “RSV viral load compared to the placebo” value was “marked reduction”. In addition, the “RSV RNA” value in data set [3] (at Day 12, all treated patients) is given as “undetectable”; in data set [3] (at Day 16 follow-up) it was “undetectable”; in data set [3] (at Day 28 follow-up), “undetectable”. For the same compound, the laboratory abnormalities entry in data set [3] (healthy adults, 5 days dosing) is listed as “no clinically significant laboratory abnormalities”. Also, the “treatment discontinuation during the study” value in data set [3] (healthy adults, 5 days dosing) is recorded as “no patient discontinued treatment”. In data set [3] (patients who received 750 mg on Day 1, within the first 24 hours), the “reduction of plaque forming units equivalents (PFUe/mL)” value is given as “multi-log reduction”.

Take `Nc1ccn([C@@H]2O[C@](CCl)(COP(=O)(O)OP(=O)(O)OP(=O)(O)O)[C@@H](O)[C@H]2F)c(=O)n1` [Compound (B)]: the half-life in data set [4] was around 17.6 h.

As to `NC(=O)c1ncn([C@@H]2O[C@H](CO)[C@@H](O)[C@H]2O)n1` [aerosolized ribavirin, ribavirin], in the data set on RSV, the “clinical benefit of treatment” value was “failed to impart any clinically significant benefits”.
